These results are taken from article PMC9014415, “Repositioning of a Diaminothiazole Series Confirmed to Target the Cyclin-Dependent Kinase CRK12 for Use in the Treatment of African Animal Trypanosomiasis” (Journal of Medicinal Chemistry, 2022).

Molecules are shown by their SMILES. Values after ≈ are worked out from the molar mass of the structure shown. Values joined by “and” are separate entries in the source; they are usually repeats but may differ in a detail not shown here. Equal values may be shown once. Read-outs that look alike come from different tables or passages of the source.

The nature of series [1]: Bovine liver microsome stability. The series is classed as in vitro ADME. The note with it: intrinsic clearance. Here is the method: 2.2 Microsomal stability studies […]
(b) Bovine liver microsome stability. Test compounds (0.5 µM) were incubated with 0.5 mg/mL bovine liver microsomes (Xenotech LLC TM) in 50 mM potassium phosphate buffer, pH7.4 and the reaction initiated upon addition of excess NADPH (8 mg/mL in 50 mM potassium phosphate buffer, pH7.4).
Aliquots (50 µL) of the incubation mixture were taken at time zero, 3, 6, 9, 15 and 30 min then mixed with acetonitrile (100 µL) to stop the reaction. An internal standard was added to all samples, prior to centrifugation (10 min, 1,665 g, RT) to sediment precipitated protein. Reaction plates were then sealed prior to UPLCMSMS analysis using a Quattro Premier XE (Waters corporation, USA).
XLfit (IDBS, UK) was used to calculate the exponential decay and consequently the rate constant (k) from the ratio of peak area of test compound to internal standard at each timepoint. The rate of intrinsic clearance (CLi) of each test compound was then calculated using the following […]
CLi(mL/min/g liver) = k x V x microsomal protein yield
Where V (mL/mg protein) is the incubation volume/ mg protein added and microsomal protein yield is taken as 52.5 mg protein/ g of liver. Verapamil (0.5 µM) was used as a positive control to confirm acceptable assay performance. […]
On the technique in general: Liver microsomes are vesicles of endoplasmic reticulum, rich in cytochrome P450 enzymes.

Series [2] in a line: Aqueous kinetic solubility by laser nephelometry. The series is classed as physicochemical. The note with it: MilliQ water with 2.5% DMSO, read-out: Sol (kinetic solubility); for solubility kinetic at 24 h: pH 7.4, range 250-12 µM. Here is the method:
2. Drug metabolism and pharmacokinetics
The aqueous solubility of test compounds was measured using laser nephelometry. Compounds were subject to serial dilution from 10 mM to 0.5 mM in DMSO. Aliquot were then mixed with MilliQ water to obtain an aqueous dilution plate with a final concentration range of 250 – 12 µM. The final DMSO concentration in these plates was 2.5%. Triplicate aliquots were transferred to a flat-bottomed polystyrene plate which was immediately read on a NEPHELOstar nephelometer (BMG Lab Technologies). The laser scatter caused by insoluble particulates (relative nephelometry units, RNU) was plotted against compound concentration using a segmental regression fit, with the point of inflection being quoted as the compound’s aqueous solubility (µM).
Solubility of compound 1 was measured by a different method. Here, compound 1 was dissolved in DMSO to give a 10 mM solution and solubility test samples prepared by adding a volume (5 µL) of this stock solution to phosphate buffered saline, pH 7.4 (195 µL, Sigma-Aldrich). This

The nature of series [3]: Pharmacokinetic studies in male Friesian-Holstein cattle, IV and IM (Ridgeway). The series is classed as in vivo. The note with it: for Vd: read-out: Vdss. How it is done: 2.7 Pharmacokinetic studies in cattle (see Table 2). Studies conducted at Ridgeway Compound 1 was dosed IM at 5 mg free base/kg (dose volume 2mL/10 kg; dose vehicle 10% N-Methyl-2-Pyrrolidinone (NMP), 40% 2-pyrrolidinone, 30% PEG400, 20% deionized water) or IV at 2.5 mg free base/kg (dose volume 0.4 mL/10 kg; 2.5% NMP, 30% PEG400, 37.5% propylene glycol, 30% water by volume) to male ruminating Holstein-Friesian cross animals (n = 4). Blood samples were taken from each animal using 18-G needles into EDTA (K2) vacutainers before dosing and at […]
a cool box containing iced water and were processed within 2 h of collection (Figure S2, Table S1).
Compound 2 was dosed IM at 10 mg free base/kg (dose volume 2 mL/10 kg; dose vehicle 40% 0.3 M Acetate Buffer, 20% Kolliphor EL, 20% glycerol formal, 20% 2-pyrrolidone) or IV at 2 mg free base/kg (dose volume 0.4 mL/10 kg; 40% 0.3 M Acetate Buffer, 20% Kolliphor EL, 20% glycerol formal, 20% 2-pyrrolidone) to male ruminating Holstein-Friesian cross animals (n = 3). Blood samples were taken from each animal using 18-G needles into EDTA (K2) vacutainers before dosing […]
into a cool box containing iced water and were processed within 2 h of collection. […]

A short description of series [4]: PK in female NMRI mice, SC. The conditions noted are these: single SC 10 mg free base/kg. It counts as in vivo, mouse. How it is done: 2.5 PK and maximum tolerated dose - mouse
PK studies in female NMRI mice (Figure S1): Test compounds 1, 2 and 10 were dosed SC at 10 mg free base/kg (dose volume 10 mL/kg; dose vehicle: 5% (v/v) DMSO, 40% polyethylene glycol 400 (PEG400) and 55% deionized water) to female NMRI mice (n = 3). Blood samples (10 μL) were taken from each mouse at 0.08, 0.25, 0.5, 1, 2, 4, 6, 8 h post dose (24 h post dose for compounds 2 and 10 only) and mixed with two volumes of deionized water (20 μL). Alternatively, compound 2 was delivered for 48 h via SC implanted ALZET osmotic pumps (10, 25 and 50 mg free base/mL, vehicle: 50% DMSO and 50% deionized water) to the female NMRI mouse (n = 3). Blood samples (10 μL) from each mouse were taken at 1, 3, 6, 24, 30 and 48 h post-dose and mixed with two volumes of deionized water (20 μL). […]

Setting [5] is: cattle, IM 10 mg/kg, individual animals 1644, 3646, 7643.
Where [6] appears, read: cattle, IM 10 mg/kg, n = 3, mean.
[7] abbreviates: cattle, IV 2 mg/kg, individual animals 1644, 3646, 7643, 2 mg/kg.
Where [8] appears, read: cattle, IV 2 mg/kg, n = 3, mean, 2 mg/kg.
Where [9] appears, read: male, Holstein-Friesian cross, bovine, blood, im, 10 mg/kg, cattle, IM 10 mg/kg, individual animals 1644, 3646, 7643.
[10] abbreviates: male, Holstein-Friesian cross, bovine, blood, im, 10 mg/kg, cattle, IM 10 mg/kg, n = 3, mean.
Where [11] appears, read: male, Holstein-Friesian cross, bovine, blood, iv, 2 mg/kg, cattle, IV 2 mg/kg, individual animals 1644, 3646, 7643.
Where [12] appears, read: male, Holstein-Friesian cross, bovine, blood, iv, 2 mg/kg, cattle, IV 2 mg/kg, n = 3, mean.

One may read the solubility (kinetic) as solubility judged after dilution from a stock solution rather than from solid. The Cmax is the peak of the concentration-time curve. Broadly, the Tmax is the time at which the peak concentration occurs. Usually half-life stands for how long it takes for the measured level to halve. The term AUC denotes the area under the concentration-time curve, a measure of exposure. One may read the AUC(0-inf) as total exposure, with the tail of the curve extrapolated. A high value points to more exposure. The bioavailability is the share of a dose that reaches the circulation, judged against a reference dose that is usually intravenous.

Take `CNCc1cc(F)c(C(=O)c2sc(N[C@H]3CC[C@H](NS(=O)(=O)CC(C)C)CC3)nc2N)c(F)c1.Cl` [Compound 8, N-((trans)-4-((4-Amino-5-(2,6-difluoro-4-((methylamino)methyl)benzoylthiazol-2-yl)amino)cyclohexyl))-2-methylpropane-1-sulfonamide Hydrochloride]: the “Bovine Microsome Cli (BLM: bovine microsomal clearance)” value (from here on “Bovine Microsome Cli”) in series [1] amounted to 0.5 mL/min/g. Further, the kinetic solubility in series [2] (range 250-12 µM) was over 250 µM.

Take `CC(C)CS(=O)(=O)N[C@H]1CC[C@H](Nc2nc(N)c(C(=O)c3c(F)cc(CN(C)C)cc3F)s2)CC1` [Compound 2, N-(trans)-[4-[[4-Amino-5-[4-(dimethylaminomethyl)-2,6-difluoro-benzoyl]thiazol-2-yl]amino]cyclohexyl]-2-methyl-propane-1-sulfonamide]: the Cav in series [3] (Friesian cattle, single IM 10 mg free base/kg) is reported as 253 ng/mL; in series [4], 78 ng/mL. The “AUC 0-∞” value is 510,000 ng-min/mL and 460,000 ng-min/mL in series [3] (setting [5]); 500,000 ± 30,000 ng-min/mL in series [3] (setting [6]); 94,000 ng-min/mL and 180,000 ng-min/mL in series [3] (setting [7]); 140,000 ± 40,000 ng-min/mL in series [3] (setting [8]). The Cmax was 950 ng/mL and 1,700 ng/mL and 2,600 ng/mL in series [3] (setting [5]); 1700 ± 800 ng/mL in series [3] (setting [6]); 1720 ng/mL in series [3] (male, Holstein-Friesian cross, bovine, blood, im, 10 mg/kg, cattle, IM 10 mg/kg, n = 3, mean, read-out: Cmax); 818 ng/mL in series [4] (mouse, blood, 10 mg/kg). In addition, the F in series [3] (setting [5]) is 75% and 66%; in series [3] (setting [6]), 73 ± 6%. Moreover, the Tmax was determined as 1.3 ± 0.6 h in series [3] (setting [6]); 2 h in series [3] (male, Holstein-Friesian cross, bovine, blood, im, 10 mg/kg, cattle, IM 10 mg/kg, individual animals 1644, 3646, 7643, read-out: Tmax); 1 h in series [3] (male, Holstein-Friesian cross, bovine, blood, im, 10 mg/kg, cattle, IM 10 mg/kg, n = 3, mean, read-out: Tmax). Further, the Injection site tolerability result in series [3] (cattle, IM, pharmacokinetic study) is “irritancy and necrosis”. Moreover, the Clb in series [3] (setting [7]) is 14 mL/min/kg and 21 mL/min/kg and 11 mL/min/kg; in series [3] (setting [8]), 15 mL/min/kg and 15 ± 5 mL/min/kg. Further, the half-life is 3 h in series [3] (setting [7]); 6 h in series [3] (male, Holstein-Friesian cross, bovine, blood, iv, 2 mg/kg, cattle, IV 2 mg/kg, individual animals 1644, 3646, 7643, read-out: Half-life (converted)); 4 ± 2 h in series [3] (male, Holstein-Friesian cross, bovine, whole blood, iv, 2 mg/kg, cattle, IV 2 mg/kg, n = 3, mean, read-out: half-life (converted)). In series [3] (setting [8]), this compound registered a Vdss of 2.3 ± 0.6 L/kg. The compound further had an AUC in series [3] (male, Holstein-Friesian cross, bovine, blood, 10 mg/kg, Friesian cattle, single IM 10 mg free base/kg) of 7330 ng·h/mL. Further, the total exposure AUC(0-inf) in series [3] (setting [9]) is 8830 ng·h/mL; in series [3] (setting [10]), 8170 ng·h/mL; in series [3] (setting [11]), 2330 ng·h/mL; in series [3] (setting [12]) it was 2170 ng·h/mL. In addition, the bioavailability in series [3] (setting [9]) was found to be 78%; in series [3] (setting [10]), 74%. Besides, the concentration at 24 h in series [3] (male, Holstein-Friesian cross, bovine, blood, intramuscular, Friesian cattle, single IM 10 mg free base/kg, read-out: Cmin (24 h)) was 20 ng/mL. Moreover, the figures for the Vd in series [3] (setting [11]) and in series [3] (setting [12]) were 2 L/kg and 3 L/kg, respectively. Also, the “Bovine Microsome Cli” value in series [1] amounted to 1.1 mL/min/g. In addition, the kinetic solubility at 24 h in series [2] is 250 µM (≈ 132 µg/mL). For the same compound, the AUC(0-t) in series [4] (mouse, blood, 10 mg/kg, read-out: AUC0-24 (converted)) is 2160 ng·h/mL. Further, the concentration at 8 h in series [4] (mouse, blood, read-out: Cmin (8 h)) was found to be 10 ng/mL.

As to `CC(C)CS(=O)(=O)N[C@H]1CC[C@H](Nc2nc(N)c(C(=O)c3c(Cl)cccc3Cl)s2)CC1` [Compound 10, N-((trans)-4-((4-Amino-5-(2,6-dichlorobenzoyl)thiazol-2-yl)amino)cyclohexyl)-2-methylpropane-1-sulfonamide], the “Bovine Microsome Cli” value in series [1] was determined as 1.6 mL/min/g. The kinetic solubility at 24 h in series [2] was 53 µM (≈ 26.8 µg/mL).
